Marks after values point to notes of the source that are not given here.
Legend:
Assay type in all cases: in vivo
[1] = test system: submaxillary gland in SS mice; assay: Histopathological examination and grading of submaxillary gland in SS mice (H&E, Chisholm-Mason scale); conditions: for Score: mice with submaxillary gland pathology Grade 0 / Score: mice with submaxillary gland pathology Grade I / Score: mice with submaxillary gland pathology Grade II / Score: mice with submaxillary gland pathology Grade III / Score: mice with submaxillary gland pathology Grade IV: two weeks of administration, four mice of each group
Experimental: (§1) Mice were sacrificed after two weeks of administration, and then submaxillary glands of four mice of each group were removed and pathologically observed. At first, the submaxillary gland should be fixed in 10% buffered formalin for 24 h, followed by washing, dehydration and clearing, wax-filling, embedding, sectioning and finally H&E staining. […] Results were graded pathologically.
(§2) Note: The histological findings graded of submaxillary glands according to the Chisholm-Mason scale; grade 0, absence of lymphocytic infiltration; grade I, slight lymphocytic infiltration; grade II, moderate lymphocytic infiltration; grade III, one focus of lymphocytic infiltration per 4 mm^2 tissue; grade IV, more than one focus of lymphocytic infiltration per 4 mm^2 tissue (Note: One focus of lymphocytic infiltration has been defined as an aggregate of 50 or more lymphocytes gathered in the labial gland stroma per 4 mm^2 of tissue.

[2] = test system: spleen CD4+ IL-17A+ T lymphocytes; assay: Spleen CD4+ IL-17A+ T lymphocytes in SS model mice (FIG. 4)
Excerpt: FIG. 4 Effects of CP-25 on spleen CD4^+ IL-17A^+ T lymphocytes in SS model mice.

[3] = test system: spleen CD19+ CD27+ B lymphocytes; assay: Spleen CD19+ CD27+ B lymphocytes in SS model mice (FIG. 7)
Excerpt: FIG. 7 Effects of CP-25 on spleen CD19^+ CD27^+ B lymphocytes in SS model mice.

spleen CD11c+ CD80+ DC = assay: Spleen CD11c+ CD80+ DC in SS model mice (FIG. 8)
Excerpt: FIG. 8 Effects of CP-25 on spleen CD11c^+ CD80^+ DC in SS model mice.

spleen CD11c+ MHC-II+ DC = assay: Spleen CD11c+ MHC-II+ DC in SS model mice (FIG. 9)
Excerpt: FIG. 9 Effects of CP-25 on spleen CD11c^+ MHC-II^+ DC in SS model mice.

[4] = test system: submaxillary glands in NOD mice; assay: Pathological grading of submaxillary glands in NOD mice; conditions: for Score: mice with submaxillary gland pathology Grade 0 / Score: mice with submaxillary gland pathology Grade I / Score: mice with submaxillary gland pathology Grade II / Score: mice with submaxillary gland pathology Grade III / Score: mice with submaxillary gland pathology Grade IV: NOD mice
Experimental: as §1, §2

spleen T lymphocytes = assay: Spleen T lymphocyte proliferation in NOD model mice (FIG. 12A)
Excerpt: (§3) FIG. 12 Effects of CP-25 on spleen T and B lymphocyte proliferation in NOD model mice.
(§4) A: T lymphocytes; B: B lymphocytes

spleen B lymphocytes = assay: Spleen B lymphocyte proliferation in NOD model mice (FIG. 12B)
Excerpt: as §3, §4

[5] = test system: spleen CD4+ CD25+ FOXP3+ T lymphocytes; assay: Spleen CD4+ CD25+ FOXP3+ T lymphocytes in NOD model mice (FIG. 14)
Excerpt: FIG. 14 Effects of CP-25 on spleen CD4^+ CD25^+ FOXP3^+ T lymphocytes in NOD model mice.

Structure (SMILES): C[C@@]12C[C@@]3(O)O[C@H](O1)C1(COC(=O)c4ccccc4)[C@@H]3CC12OC1OC(COS(=O)(=O)c2ccccc2)C(O)C(O)C1O (stereo partly shown) [CP-25, Paeoniflorin-6′-O-benzenesulfonate]
- Score: mice with submaxillary gland pathology Grade 0 ([1]; 17.5 mg/kg): 0
- Score: mice with submaxillary gland pathology Grade I ([1]; 17.5 mg/kg): 0
- Score: mice with submaxillary gland pathology Grade II ([1]; 17.5 mg/kg): 0
- Score: mice with submaxillary gland pathology Grade III ([1]; 17.5 mg/kg): 1
- Score: mice with submaxillary gland pathology Grade IV ([1]; 17.5 mg/kg): 3
- Score: mice with submaxillary gland pathology Grade 0 ([1]; 35 mg/kg): 0
- Score: mice with submaxillary gland pathology Grade I ([1]; 35 mg/kg): 0
- Score: mice with submaxillary gland pathology Grade II ([1]; 35 mg/kg): 0
- Score: mice with submaxillary gland pathology Grade III ([1]; 35 mg/kg): 1
- Score: mice with submaxillary gland pathology Grade IV ([1]; 35 mg/kg): 3
- Score: mice with submaxillary gland pathology Grade 0 ([1]; 70 mg/kg): 0
- Score: mice with submaxillary gland pathology Grade I ([1]; 70 mg/kg): 0
- Score: mice with submaxillary gland pathology Grade II ([1]; 70 mg/kg): 0
- Score: mice with submaxillary gland pathology Grade III ([1]; 70 mg/kg): 3
- Score: mice with submaxillary gland pathology Grade IV ([1]; 70 mg/kg): 1^#
- Pathological changes in submaxillary gland ([1]; Example 3, dose not given): apparently ameliorate the pathological changes
- Pathological changes in submaxillary glands (H&E staining score, rank-sum test) ([1]; high dose of CP-25): apparently ameliorate the pathological changes
- Ratio of CD4+ IL-17A+ Th17 lymphocytes [2]: significantly inhibit
- Ratio of spleen CD19+ CD27+ B lymphocytes [3]: significantly increase
- Expression of surface molecular CD80+ on spleen CD11c+ DC (spleen CD11c+ CD80+ DC): significantly inhibit
- Expression of surface molecular MHC-II+ on spleen CD11c+ DC (spleen CD11c+ MHC-II+ DC): significantly inhibit
- Score: mice with submaxillary gland pathology Grade 0 ([4]; 17.5 mg/kg): 0
- Score: mice with submaxillary gland pathology Grade I ([4]; 17.5 mg/kg): 0
- Score: mice with submaxillary gland pathology Grade II ([4]; 17.5 mg/kg): 0
- Score: mice with submaxillary gland pathology Grade III ([4]; 17.5 mg/kg): 1
- Score: mice with submaxillary gland pathology Grade IV ([4]; 17.5 mg/kg): 3
- Score: mice with submaxillary gland pathology Grade 0 ([4]; 35 mg/kg): 0
- Score: mice with submaxillary gland pathology Grade I ([4]; 35 mg/kg): 0
- Score: mice with submaxillary gland pathology Grade II ([4]; 35 mg/kg): 0
- Score: mice with submaxillary gland pathology Grade III ([4]; 35 mg/kg): 1
- Score: mice with submaxillary gland pathology Grade IV ([4]; 35 mg/kg): 3
- Score: mice with submaxillary gland pathology Grade 0 ([4]; 70 mg/kg): 0
- Score: mice with submaxillary gland pathology Grade I ([4]; 70 mg/kg): 0
- Score: mice with submaxillary gland pathology Grade II ([4]; 70 mg/kg): 0
- Score: mice with submaxillary gland pathology Grade III ([4]; 70 mg/kg): 3
- Score: mice with submaxillary gland pathology Grade IV ([4]; 70 mg/kg): 1 ^#
- Pathological changes in submaxillary gland ([4]; NOD model mice, Example 6): apparently ameliorate the pathological changes
- Spleen T lymphocyte proliferation (spleen T lymphocytes): significantly inhibit
- Spleen B lymphocyte proliferation (spleen B lymphocytes): significantly inhibit
- Ratio of spleen CD4+ CD25+FOXP3+ Treg lymphocytes [5]: significantly improve
